Several values for one entry are separate records, joined by “and”; a condition that tells them apart may be missing. Equal entries are not always repeated.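 Cultured in 96-well plates, cells were exposed to test compound for 48 hours across five concentrations. GI50: concentration for 50% inhibition of growth. The concentration for full growth arrest is given as TGI.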 Where only a bound is given, the exact number is not on record here.

This is an account of results in PubChem BioAssay (NCI).

Common to all, as to assay: NCI anticancer screen, dose series, 48 h
Test [1] concerns HOP-62 NSCLC.
For test [2], the system named is OVCAR-3 ovarian.
Test [3] has as its system OVCAR-8 ovarian.
Test [4] has as its system SK-OV-3 ovarian.
The subject of test [5] is NCI-H23 lung.
The test system of test [6] is M14 melanoma.
The subject of test [7] is HL-60(TB) leukemia.
The subject of test [8] is UO-31 renal.
Test [9] relates to SR leukemia.

`CCP(C)(C)=O`: the TGI in [1], in test [2], in test [3], in test [4], in test [5] and in [6] was above 100 µM throughout.
For `CN(C)CCC(/C=C/c1ccccc1)=N\Nc1ccc(Cl)cc1`, the TGI was 4.07 µM in test [1]; 5.32 µM in [7]; 22.5 µM in [2]; 14 µM in test [3]; 13.4 µM in test [4]; 20.9 µM in test [5]. Moreover, the TGI in test [6] came to 12.5 µM; in test [8] it was 4.24 µM.
As to `Cc1cc(Cl)cc2c1NC(=O)C2(O)CC(=O)c1ccc(F)cc1` (stereo not given), the TGI in test [1] was above 100 µM; in test [2], 96.5 µM; in test [3], above 100 µM; in [4], above 100 µM; in [5], above 100 µM; in [6], above 100 µM. In test [8], this compound yielded a TGI above 100 µM.
On to `Cc1cccc(Cl)c1NC(=O)c1cccc([N+](=O)[O-])c1O`, for which the TGI is 54.4 µM in test [1]; 76.4 µM in test [2]; above 100 µM in test [3]; above 100 µM in test [4]; 85.1 µM in test [5]; above 100 µM in [6]. Besides, the TGI in test [8] stood at 59.5 µM.
Regarding `COc1cc(/C=C2\NC(=S)C3Cc4c(OC)c(C)c(OC)c(OC)c4C2N3C)c(OC)c(C)c1OC` (stereo not given), the TGI is 55.3 µM in test [9]; above 100 µM in test [1]; 67.6 µM in test [7]; above 100 µM in [2]; above 100 µM in test [3]; above 100 µM in test [4]. The TGI in test [5], in test [6] and in test [8] was above 100 µM throughout.
On to `CC1NCCc2c1[nH]c1cc(O)ccc21` (stereo not given), for which the TGI in [1], in test [7], in test [2], in test [3], in test [4] and in test [5] was above 100 µM each time. Further, the TGI in test [6] and in test [8] was above 100 µM each time.
`C/C=C/C=C/CCCCCCCCCCCCC[C@]1(OC)C=CC(CC(=O)OC)OO1` (stereo not given in full): the GI50 in test [1] was 43.9 µM; in [2], 22.1 µM; in test [3] it was 17.6 µM; in test [5], 19.1 µM. The TGI was above 100 µM in test [1]; 42.2 µM in test [2]; 37.7 µM in test [3]; 81 µM in test [4]; 36.8 µM in test [5]; 31.9 µM in test [6].
Turning to `NC1=NCC(c2ccccn2)C1c1ccc(F)cc1` (stereo not given), the TGI in [9], in test [1], in test [2], in test [3], in test [4] and in test [5] was above 100 µM throughout. The TGI in test [6] and in [8] was above 100 µM in each case.
With `CC1(C)Cc2nnsc2C2=C1C(=O)CCS2`, the TGI in test [1], in test [7], in test [2], in test [3], in [4] and in [5] was above 100 µM each time. For the same compound, the TGI in test [6] and in test [8] was above 100 µM in each case.
As for `OCCSCC/C(=N\N=C(/CCSCCO)c1ccccc1)c1ccccc1`, the TGI in [1], in [7], in [2], in test [3], in test [4] and in test [5] was above 100 µM each time. Moreover, the TGI in [6] and in [8] was above 100 µM in each case.
Turning to `CC(=O)OCC1OC(n2c(=S)n(-c3ccccc3)c(=O)c3cc(Br)ccc32)C(OC(C)=O)C(OC(C)=O)C1OC(C)=O` (stereo not given), the GI50 in test [9] is > 100 µM and 12 µM. The TGI in test [9], in [1], in test [7], in [2], in [3] and in test [4] was above 100 µM each time. Moreover, the TGI in test [5], in test [6] and in test [8] was above 100 µM throughout.
On to `CC(C)(C)c1cc(-c2c3nc(c(-c4cc(C(C)(C)C)cc(C(C)(C)C)c4)c4ccc([nH]4)c(-c4cc(C(C)(C)C)cc(C(C)(C)C)c4)c4nc(c(-c5cc(C(C)(C)C)cc(C(C)(C)C)c5)c5ccc2[nH]5)C=C4)C=C3)cc(C(C)(C)C)c1`, for which the TGI in test [9], in test [1], in test [7], in test [2], in test [3] and in test [4] was above 100 µM in each case. In addition, the TGI in [5], in test [6] and in test [8] was above 100 µM throughout.
Turning to `C/C(=C1/N=C(c2ccccc2)OC1=O)c1ccccc1`, the TGI in test [9], in test [1], in test [7], in test [2], in test [3] and in test [4] was above 100 µM throughout. The TGI in [5] and in test [6] was above 100 µM each time.
In the case of `Cc1ccccc1NC(=O)C(=O)CC(=O)C1CCOC1=O` (stereo not given), the TGI in test [1], in [7], in test [2], in test [3], in test [4] and in test [5] was above 100 µM each time. Moreover, the TGI in test [6] and in [8] was above 100 µM each time.
In the case of `O=c1oc2c(cc1-c1ccccc1)C(O)Oc1ccccc1-2` (stereo not given), the GI50 in [9] was 2.89 µM; in [1], 10.3 µM; in test [7], 2.6 µM; in [2], 2.6 µM; in test [3], 6.89 µM; in test [4], 10.2 µM. Moreover, the results for the GI50 in test [5], in [6] and in [8] were 7.94 µM, 3.32 µM and 11.5 µM, respectively. Also, the TGI in [9] is 13.7 µM; in [1], 78.8 µM; in test [7], 26.8 µM; in test [2], above 100 µM; in [3], above 100 µM; in test [4], 75.7 µM. The TGI in test [5] is 25 µM; in test [6] it was 14.5 µM; in test [8], 52.3 µM.
For `COc1ccc(C(=O)C/C(=N/NC(N)=S)C(=O)Nc2ccccc2)cc1`, the TGI in test [7], in [2], in test [3], in test [4], in test [5] and in test [6] was above 100 µM throughout. Besides, in [8], the TGI was above 100 µM.
`COC(=O)[C@@H]1[C@H](O)[C@H](C)[C@H](O)[C@H](C)/C=C\C=C(C)C(=O)Nc2c(C)c(OC(C)=O)c3c(c2O)C(=O)C(C)=C2OCOC(=C23)C(C)=C[C@@](C)(O)[C@H](O)[C@@H](C)[C@H]1OC(C)=O`: the TGI in test [9] was above 100 µM; in test [1], above 100 µM; in [7] it was 34 µM; in test [3] it was above 100 µM; in test [5] it was above 100 µM; in test [6], above 100 µM. Besides, in test [8], the TGI is above 100 µM.
Turning to `CC(=O)Oc1ccccc1C(=O)NCCC[Se]C#N`, the GI50 is 2.02 µM in [9]; 1.51 µM in test [1]; 2.09 µM in [7]; 1.95 µM in test [3]; 3.33 µM in [4]; 2.58 µM in [5]. Further, the GI50 in test [6] was 1.82 µM. The TGI turned out to be 9.4 µM in test [9]; 2.92 µM in test [1]; 5.49 µM in [7]; 4.1 µM in test [3]; 6.16 µM in test [4]; 7.57 µM in test [5]. The same compound showed a TGI in test [6] of 5.38 µM.
For the compound `N#CSCC1CC(O)(c2ccccc2)CC(c2ccc(Cl)cc2)O1` (stereo not given), the GI50 was 1.65 µM in test [9]; 4.46 µM in test [1]; 2.52 µM in [7]; 1.72 µM in test [2]; 1.98 µM in test [3]; 14.3 µM in test [4]. Besides, the GI50 is 2.41 µM in test [5], 1.75 µM in test [6] and 1.61 µM in test [8]. The TGI in test [9] amounted to 5.02 µM; in test [1], 14.9 µM; in test [7] it was 5.3 µM; in test [2], 3.14 µM; in test [3], 3.94 µM; in [4], 27.5 µM. Also, the TGI in [5] is 6.53 µM; in test [6] it was 3.28 µM; in test [8], 4.84 µM.
As to `Cc1cccc(C)c1NC(=O)CCCC(=O)C(C#N)c1ccc(Cl)cc1` (stereo not given), the TGI in [9], in test [1], in test [7], in test [2], in [3] and in [4] was above 100 µM in each case. Besides, the TGI in [5], in test [6] and in test [8] was above 100 µM in each case.
`C[CH2][Ge]([CH2]C)([CH2]C)[O]C(=O)C([O][Ge]([CH2]C)([CH2]C)[CH2]C)c1ccccc1` (stereo not given): the GI50 in [9] was 14.5 µM; in [1], 19.5 µM; in test [7], 14.7 µM; in [2] it was 16.2 µM; in test [3], 18.2 µM; in test [4], 11.1 µM. The GI50 in [5] is 10.1 µM; in [6] it was 17.1 µM; in test [8], 13 µM. Further, the TGI stood at 75.4 µM in test [9]; 42.8 µM in [1]; 38.9 µM in test [7]; 37.3 µM in test [2]; 97.9 µM in test [3]; 31.7 µM in [4]. In addition, the TGI came out at 44.3 µM in [5], 44.2 µM in test [6] and 28.7 µM in [8].
On to `O=C1[C@@H]2C(c3ccncc3)=NO[C@@H]2C(=O)N1c1ccc(Cc2ccc(N3C(=O)[C@H]4C(c5ccncc5)=NO[C@H]4C3=O)cc2)cc1`, for which the TGI in [1], in test [7], in test [2], in [3], in test [4] and in test [5] was above 100 µM in each case. The TGI in test [6] and in test [8] was above 100 µM each time.
As to `CN(C)CCC(=O)N1CCc2c([nH]c3ccccc23)C1c1cccnc1` (stereo not given), the TGI in test [9], in test [1], in test [7], in test [2], in test [3] and in test [4] was above 100 µM each time. Also, the TGI in [5], in [6] and in [8] was above 100 µM each time.
For `O=[N+]([O-])c1ccc2nc3ccscc-3c2c1`, the TGI in test [1] was 69.4 µM; in test [7], 30.4 µM; in test [2] it was above 100 µM; in test [4] it was 86.3 µM; in test [5] it was 70.2 µM; in test [6] it was 32.4 µM. This compound also displayed a TGI in test [8] above 100 µM.
Turning to `NCCn1cnc2nc(NC(=O)c3ccccc3)[nH]c(=O)c21`, the TGI in test [9], in test [1], in test [7], in test [2], in test [3] and in test [5] was above 100 µM throughout. In test [8], the TGI was above 100 µM.
On to `COc1ccc(/C(=C\c2cc(OC)c(OC)c(OC)c2)C(=O)O)cc1`, for which the TGI is above 100 µM in test [9]; above 100 µM in [1]; 72.3 µM in [7]; above 100 µM in [2]; above 100 µM in test [3]; above 100 µM in test [6]. For the same compound, in test [8], the TGI is 97.5 µM.
Regarding `Cc1nnc2n1N=C(c1ccc(-c3ccc([N+](=O)[O-])cc3)o1)CS2`, the TGI in test [9], in test [1], in test [7], in [2], in test [3] and in test [4] was above 100 µM throughout. For the same compound, the TGI in test [5], in test [6] and in test [8] was above 100 µM each time.
Take `CCOC(=O)C1=C(C)N(NC(=O)OC)C2(N)N(NC(=O)OC)C(C)=C(C(=O)OCC)C12C#N` (stereo not given): the TGI in [9], in test [1], in test [7], in [2], in test [3] and in test [4] was above 100 µM in each case. The TGI in [6] and in [8] was above 100 µM each time.
